Data from patent publication US9056843B2, “Trifluoromethyl-oxadiazole derivatives and their use in the treatment of disease” (NOVARTIS AG, priority 2011, dated 2015).
Read-outs that look alike come from different tables or passages of the source.

Legend:
Format in all cases: biochemical
Human recombinant HDAC4 = Human recombinant HDAC4 (Homo sapiens (Human), UniProt P56524); test: Test 2: HDAC4 assay (fluorogenic substrate, 5 μM acetyl-Gly-Ala-Lys(ε-trifluoroacetyl)-AMC); settings: Test 2 (values without asterisk)
Chain of Human recombinant HDAC4 (P56524 2-1084): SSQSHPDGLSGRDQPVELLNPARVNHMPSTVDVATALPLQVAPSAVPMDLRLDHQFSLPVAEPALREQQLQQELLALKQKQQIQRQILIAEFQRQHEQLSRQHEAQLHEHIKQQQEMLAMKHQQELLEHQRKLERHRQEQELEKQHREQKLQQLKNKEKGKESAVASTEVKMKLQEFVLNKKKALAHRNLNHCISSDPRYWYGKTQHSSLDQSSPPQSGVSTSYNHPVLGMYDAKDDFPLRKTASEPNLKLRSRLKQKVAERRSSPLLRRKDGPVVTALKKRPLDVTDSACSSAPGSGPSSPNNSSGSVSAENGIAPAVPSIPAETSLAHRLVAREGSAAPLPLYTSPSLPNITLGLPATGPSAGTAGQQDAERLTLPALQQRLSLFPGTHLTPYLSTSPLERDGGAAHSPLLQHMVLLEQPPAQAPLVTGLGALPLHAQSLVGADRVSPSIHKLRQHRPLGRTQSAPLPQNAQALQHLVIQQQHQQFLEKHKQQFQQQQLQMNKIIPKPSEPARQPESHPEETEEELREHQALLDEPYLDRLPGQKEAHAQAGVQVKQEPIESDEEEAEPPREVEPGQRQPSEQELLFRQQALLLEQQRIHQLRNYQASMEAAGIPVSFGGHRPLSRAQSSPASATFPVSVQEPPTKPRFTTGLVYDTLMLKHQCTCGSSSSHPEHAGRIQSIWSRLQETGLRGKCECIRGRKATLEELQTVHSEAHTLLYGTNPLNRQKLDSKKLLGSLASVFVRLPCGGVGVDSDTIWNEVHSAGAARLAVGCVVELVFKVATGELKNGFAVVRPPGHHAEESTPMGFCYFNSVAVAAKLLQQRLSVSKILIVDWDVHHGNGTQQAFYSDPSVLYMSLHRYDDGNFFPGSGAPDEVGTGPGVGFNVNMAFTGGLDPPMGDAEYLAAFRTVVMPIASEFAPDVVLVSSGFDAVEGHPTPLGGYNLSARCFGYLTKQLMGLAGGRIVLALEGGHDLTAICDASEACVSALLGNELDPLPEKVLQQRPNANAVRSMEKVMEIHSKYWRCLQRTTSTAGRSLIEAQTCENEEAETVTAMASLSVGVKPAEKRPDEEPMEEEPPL
Method in brief: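 After the reaction, bovine trypsin (300 nM solution) was added for 15 min at RT to develop the signal; fluorescence read at 360/450 nm. No-enzyme background subtracted; IC50 from 4-parameter logistic fit of dose-response curves.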

[1] = biological target: Human recombinant full length HDAC6 (Homo sapiens (Human), UniProt Q9UBN7); test: Test 4: HDAC6 assay
Chain of Human recombinant full length HDAC6 (Q9UBN7 whole entry): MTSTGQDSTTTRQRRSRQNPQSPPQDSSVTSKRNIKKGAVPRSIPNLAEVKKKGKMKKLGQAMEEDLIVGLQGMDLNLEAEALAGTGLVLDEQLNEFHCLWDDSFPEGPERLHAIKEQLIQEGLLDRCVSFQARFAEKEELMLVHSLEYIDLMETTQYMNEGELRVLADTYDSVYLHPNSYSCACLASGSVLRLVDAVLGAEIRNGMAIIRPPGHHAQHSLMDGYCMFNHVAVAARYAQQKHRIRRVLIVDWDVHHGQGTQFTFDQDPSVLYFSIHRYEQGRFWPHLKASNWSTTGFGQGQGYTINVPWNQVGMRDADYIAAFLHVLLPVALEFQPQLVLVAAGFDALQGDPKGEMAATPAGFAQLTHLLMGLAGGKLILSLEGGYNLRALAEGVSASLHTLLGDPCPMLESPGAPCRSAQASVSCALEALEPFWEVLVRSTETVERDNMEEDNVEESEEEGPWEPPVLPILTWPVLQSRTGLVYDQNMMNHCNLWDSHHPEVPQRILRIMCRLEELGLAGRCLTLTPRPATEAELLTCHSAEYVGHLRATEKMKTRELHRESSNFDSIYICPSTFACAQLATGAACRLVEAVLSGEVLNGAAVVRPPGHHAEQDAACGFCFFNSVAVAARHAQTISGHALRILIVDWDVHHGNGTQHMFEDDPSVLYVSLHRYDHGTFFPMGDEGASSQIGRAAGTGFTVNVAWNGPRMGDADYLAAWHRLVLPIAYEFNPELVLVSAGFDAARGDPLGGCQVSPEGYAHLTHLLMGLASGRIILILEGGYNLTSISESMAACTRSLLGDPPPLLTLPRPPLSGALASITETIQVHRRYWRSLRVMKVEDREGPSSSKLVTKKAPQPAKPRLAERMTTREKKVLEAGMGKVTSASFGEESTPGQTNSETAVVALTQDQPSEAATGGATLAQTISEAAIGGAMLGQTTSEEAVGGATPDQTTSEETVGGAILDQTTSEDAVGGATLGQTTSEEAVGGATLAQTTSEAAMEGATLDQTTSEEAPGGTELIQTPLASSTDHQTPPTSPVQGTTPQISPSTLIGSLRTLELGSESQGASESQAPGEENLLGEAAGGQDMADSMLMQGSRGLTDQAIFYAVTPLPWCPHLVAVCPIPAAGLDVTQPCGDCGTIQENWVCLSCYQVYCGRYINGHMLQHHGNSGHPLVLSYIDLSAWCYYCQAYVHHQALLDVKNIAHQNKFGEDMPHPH
Method in brief: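 Baculovirus-expressed full-length recombinant human HDAC6 with 5 μM acetyl-Gly-Ala-Lys(acetyl)-AMC substrate, developed with trypsin 15 min at room temperature.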

[2] = biological target: Human recombinant full length HDAC1 (Homo sapiens (Human), UniProt Q13547); test: Test 3: HDAC1 assay; settings: substrate 5 μM acetyl-Gly-Ala-Lys(acetyl)-AMC
Chain of Human recombinant full length HDAC1 (Q13547 whole entry): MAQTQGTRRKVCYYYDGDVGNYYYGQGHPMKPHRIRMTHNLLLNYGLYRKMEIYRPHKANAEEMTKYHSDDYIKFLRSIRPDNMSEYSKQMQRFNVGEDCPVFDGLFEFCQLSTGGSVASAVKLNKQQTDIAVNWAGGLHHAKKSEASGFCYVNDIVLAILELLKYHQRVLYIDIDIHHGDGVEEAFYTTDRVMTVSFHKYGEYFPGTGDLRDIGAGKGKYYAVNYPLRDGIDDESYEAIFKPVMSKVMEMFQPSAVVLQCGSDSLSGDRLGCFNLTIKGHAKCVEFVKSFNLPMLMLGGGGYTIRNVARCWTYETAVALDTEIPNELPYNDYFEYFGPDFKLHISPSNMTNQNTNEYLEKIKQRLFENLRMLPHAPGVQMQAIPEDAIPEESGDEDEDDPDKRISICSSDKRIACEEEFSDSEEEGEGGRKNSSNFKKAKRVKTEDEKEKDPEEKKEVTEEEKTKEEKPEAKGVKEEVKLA
Method in brief: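 Baculovirus-expressed full-length human HDAC1 with 5 μM acetyl-Gly-Ala-Lys(acetyl)-AMC substrate, developed with trypsin 15 min at room temperature.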

[3] = Test 4, substrate 5 μM acetyl-Gly-Ala-Lys(acetyl)-AMC

| SMILES | IC50 (Human recombinant HDAC4) [µM] | IC50 [1, 3] [µM] | IC50 [2] [µM] | IC50 [1] [µM] |
| --- | --- | --- | --- | --- |
| CC(C)(C)OC(=O)N1CCC(NC(=O)c2ccc(-c3noc(C(F)(F)F)n3)cc2)C1 (stereo not drawn) [Example 66, Tert-butyl 3-(4-(5-(trifluoromethyl)-1,2,4-oxadiazol-3-yl)benzamido)pyrrolidine-1-carboxylate] | 0.33 | 5.8 | > 10 | – |
| C[C@H](CN(C)Cc1ccccc1)NC(=O)c1ccc(-c2noc(C(F)(F)F)n2)cc1 [Example 156, (R)—N-(1-(benzyl(methyl)amino)propan-2-yl)-4-(5-(trifluoromethyl)-1,2,4-oxadiazol-3-yl)benzamide] | 0.00085 | 2.3 | 2.9 | – |
| O=C(NCCc1ccccc1)c1ccc(-c2noc(C(F)(F)F)n2)cc1 [Example 45, N-phenethyl-4-(5-(trifluoromethyl)-1,2,4-oxadiazol-3-yl)benzamide] | 4.2 | > 10 | > 10 | – |
| CC(CN(C)C)NC(=O)c1ccc(-c2noc(C(F)(F)F)n2)cc1 (stereo not drawn) [Example 53, N-(1-(dimethylamino)propan-2-yl)-4-(5-(trifluoromethyl)-1,2,4-oxadiazol-3-yl)benzamide] | 0.026 | > 10 | > 10 | – |
| CC(C)(C)OC(=O)NC1CCCCC1NC(=O)c1ccc(-c2noc(C(F)(F)F)n2)cc1 (stereo not drawn) [Example 60, tert-butyl (2-(4-(5-(trifluoromethyl)-1,2,4-oxadiazol-3-yl)benzamido)cyclohexyl)carbamate] | 2.5 | 2.2 | > 10 | – |
| C[C@H](CN1CCCC1)NC(=O)c1ccc(-c2noc(C(F)(F)F)n2)cc1 [Example 130, (R)—N-(1-(pyrrolidin-1-yl)propan-2-yl)-4-(5-(trifluoromethyl)-1,2,4-oxadiazol-3-yl)benzamide] | 0.011 | 9.1 | > 10 | – |
| CN(C)CCN(C)C(=O)c1ccc(-c2noc(C(F)(F)F)n2)cc1 [Example 37, N-(2-(dimethylamino)ethyl)-N-methyl-4-(5-(trifluoromethyl)-1,2,4-oxadiazol-3-yl)benzamide] | 0.34 | > 10 | > 10 | – |
| CN(C)C[C@H](Cc1ccccc1)NC(=O)c1ccc(-c2noc(C(F)(F)F)n2)cc1F [Example 117, (S)—N-(1-(dimethylamino)-3-phenylpropan-2-yl)-2-fluoro-4-(5-(trifluoromethyl)-1,2,4-oxadiazol-3-yl)benzamide] | 0.11 | 1.5 | 6.7 | – |
| CCN(C[C@@H](C)NC(=O)c1ccc(-c2noc(C(F)(F)F)n2)cc1F)C(C)C [Example 152, (R)—N-(1-(ethyl(isopropyl)amino)propan-2-yl)-2-fluoro-4-(5-(trifluoromethyl)-1,2,4-oxadiazol-3-yl)benzamide] | 0.0084 | 2.4 | > 10 | – |
| Cc1ccc(NS(=O)(=O)c2ccc(-c3noc(C(F)(F)F)n3)cc2)cc1 [Example 108, N-p-tolyl-4-(5-(trifluoromethyl)-1,2,4-oxadiazol-3-yl)benzenesulfonamide] | 0.093 | 0.74 | 5 | – |
| O=S(=O)(Nc1ccc(F)cc1)c1ccc(-c2noc(C(F)(F)F)n2)cc1 [Example 109, N-(4-fluorophenyl)-4-(5-(trifluoromethyl)-1,2,4-oxadiazol-3-yl)benzenesulfonamide] | 0.097 | 0.44 | > 10 | – |
| CC(C)N(C)C[C@@H](C)NC(=O)c1ccc(-c2noc(C(F)(F)F)n2)cc1F [Example 142, (R)-2-fluoro-N-(1-(isopropyl(methyl)amino)propan-2-yl)-4-(5-(trifluoromethyl)-1,2,4-oxadiazol-3-yl)benzamide] | 0.0072 | 5.4 | > 10 | – |
| CN(CCO)C(=O)c1ccc(-c2noc(C(F)(F)F)n2)cc1 [Example 15, N-(2-hydroxyethyl)-N-methyl-4-(5-(trifluoromethyl)-1,2,4-oxadiazol-3-yl)benzamide] | 0.99 | > 10 | > 10 | – |
| O=C(NC1CCOCC1)c1ccc(-c2noc(C(F)(F)F)n2)cc1 [Example 57, N-(tetrahydro-2H-pyran-4-yl)-4-(5-(trifluoromethyl)-1,2,4-oxadiazol-3-yl)benzamide] | 0.52 | 6.5 | > 10 | – |
| CNC(=O)Cc1ccc(-c2noc(C(F)(F)F)n2)cc1 [Example 3, N-methyl-2-[4-(5-trifluoromethyl-[1,2,4]oxadiazol-3-yl)-phenyl]-acetamide] | 1.9 | > 10 | > 10 | – |
| O=C(Nc1cccnc1)c1ccc(-c2noc(C(F)(F)F)n2)cc1 [Example 48, N-(ppyridin-3-yl)-4-(5-(trifluoromethyl)-1,2,4-oxadiazol-3-yl)benzamide] | 0.14 | 4.8 | > 10 | – |

| SMILES | IC50 (Human recombinant HDAC4) [µM] | IC50 [1, 3] [µM] | IC50 [2] [µM] | IC50 [1] [µM] |
| --- | --- | --- | --- | --- |
| CN(C)CCNC(=O)c1ccc(-c2noc(C(F)(F)F)n2)cc1 [Example 31, N-(2-(dimethylamino)ethyl)-4-(5-(trifluoromethyl)-1,2,4-oxadiazol-3-yl)benzamide] | 0.08 | 7.05 | 7.6 | – |
| CC(C)N(C)C(=O)c1ccc(-c2noc(C(F)(F)F)n2)cc1 [Example 24, N-isopropyl-N-methyl-4-(5-(trifluoromethyl)-1,2,4-oxadiazol-3-yl)benzamide] | 0.77 | > 10 | > 10 | – |
| O=C(NCCO)c1ccc(-c2noc(C(F)(F)F)n2)cc1 [Example 13, N-(2-hydroxyethyl)-4-(5-(trifluoromethyl)-1,2,4-oxadiazol-3-yl)benzamide] | 0.66 | 8.9 | > 10 | – |
| CC(C)CNC(=O)c1ccc(-c2noc(C(F)(F)F)n2)cc1 [Example 27, N-isobutyl-4-(5-(trifluoromethyl)-1,2,4-oxadiazol-3-yl)benzamide] | 1.2 | > 10 | > 10 | – |
| CN(C)C[C@@H](Cc1ccccc1)NC(=O)c1ccc(-c2noc(C(F)(F)F)n2)cc1F [Example 118, (R)—N-(1-(dimethylamino)-3-phenylpropan-2-yl)-2-fluoro-4-(5-(trifluoromethyl)-1,2,4-oxadiazol-3-yl)benzamide] | 0.22 | 4.7 | > 10 | – |
| CN(C)C[C@@H](Cc1ccccc1)NC(=O)c1ccc(-c2noc(C(F)(F)F)n2)cc1 [Example 92, (R)—N-(1-(dimethylamino)-3-phenylpropan-2-yl)-4-(5-(trifluoromethyl)-1,2,4-oxadiazol-3-yl)benzamide] | 0.085 | 4 | > 6.8 | – |
| COCCN(C)C(=O)c1ccc(-c2noc(C(F)(F)F)n2)cc1 [Example 18, N-(2-methoxyethyl)-N-methyl-4-(5-(trifluoromethyl)-1,2,4-oxadiazol-3-yl)benzamide] | 0.39 | > 10 | > 10 | – |
| CC(C)NC(=O)c1ccc(-c2noc(C(F)(F)F)n2)cc1 [Example 20, N-isopropyl-4-(5-(trifluoromethyl)-1,2,4-oxadiazol-3-yl)benzamide] | 1 | > 10 | > 10 | – |
| O=C(NCCCO)c1ccc(-c2noc(C(F)(F)F)n2)cc1 [Example 17, N-(3-hydroxyypropyl)-4-(5-(trifluoromethyl)-1,2,4-oxadiazol-3-yl)benzamide] | 1.4 | – | > 10 | 8.6 |
| CN(C)C1CCN(C(=O)c2ccc(-c3noc(C(F)(F)F)n3)cc2)CC1 [Example 39, (4-(dimethylamino)piperidin-1-yl)(4-(5-(trifluoromethyl)-1,2,4-oxadiazol-3-yl)phenyl)methanone] | 1.2 | > 10 | > 10 | – |
| O=C(c1ccc(-c2noc(C(F)(F)F)n2)cc1)N1CCCC1 [Example 23, Pyrrolidin-1-yl(4-(5-(trifluoromethyl)-1,2,4-oxadiazol-3-yl)phenyl)methanone] | 1.5 | 6 | > 10 | – |
| CC(C)C[C@H](CN(C)C)NC(=O)c1ccc(-c2noc(C(F)(F)F)n2)cc1 [Example 85, (R)—N-(1-(dimethylamino)-4-methylpentan-2-yl)-4-(5-(trifluoromethyl)-1,2,4-oxadiazol-3-yl)benzamide] | 0.048 | > 10 | > 10 | – |
| CN(C)S(=O)(=O)c1ccc(-c2noc(C(F)(F)F)n2)cc1 [Example 114, N,N-dimethyl-4-(5-(trifluoromethyl)-1,2,4-oxadiazol-3-yl)benzenesulfonamide] | 0.63 | 9.1 | > 10 | – |
| O=C(Nc1ccccc1)c1ccc(-c2noc(C(F)(F)F)n2)cc1 [Example 35, N-phenyl-4-(5-(trifluoromethyl)-1,2,4-oxadiazol-3-yl)benzamide] | 6.7 | > 10 | > 10 | – |
| C[C@H](CN1CCCCC1)NC(=O)c1ccc(-c2noc(C(F)(F)F)n2)cc1F [Example 129, (R)-2-fluoro-N-(1-(piperidin-1-yl)propan-2-yl)-4-(5-(trifluoromethyl)-1,2,4-oxadiazol-3-yl)benzamide] | 0.013 | 3 | 9.05 | – |
| CC(C)[C@@H](CN(C)C)NC(=O)c1ccc(-c2noc(C(F)(F)F)n2)cc1 [Example 83, (S)—N-(1-(dimethylamino)-3-methylbutan-2-yl)-4-(5-(trifluoromethyl)-1,2,4-oxadiazol-3-yl)benzamide] | 0.015 | > 10 | > 10 | – |
